Results taken from PMC10165273, “Itch receptor MRGPRX4 interacts with the receptor activity–modifying proteins” (The Journal of Biological Chemistry, 2023).
Like-named read-outs stand apart in the source and are kept apart here.

Target: T1, MRGPRX4 + RAMP1 (Homo sapiens, UniProt Q96LA9)
T1 construct: expressed in transfected cells; host or cells: HEK293T
Assay: IP1 accumulation, MRGPRX4 coexpressed with RAMP1
Type: cell-based
Details: for activation at 100 µM / activation at 20 µM / activation at 4 µM / activation at 0.8 µM / activation at […] / activation at 0.032 µM: 2 h; for Emax: Figure 4a bottom, MRGPRX4 alone = 100, read-out: efficacy
Description: HEK293T cells were transfected with 1 pg/cell of MRGPRX4 DNA, and the amount of DNA was kept constant at 2 pg/cell with pcDNA3.1(+) empty vector, unless otherwise specified. Twenty four hours after transfection, IP1 assay was performed as previously described ([51]). When applicable, cells were treated with 1 μM YM254890 (YM) or different concentrations of U73122 for 1 h prior to addition of agonist or buffer. After incubation for 2 h, HTRF reagents and IP1 calibration standards were added and incubated for 2 h in the dark at room temperature. Time-resolved fluorescence signals were read on the BioTek Synergy NEO-TRF Hybrid multi-mode reader (BioTek Instruments). All data were carried out in three independent experiments with three technical replicate each.
For a homogenous transfection of MRGPRX4, a master mix of MRGPRX4 DNA was made prior to addition of the RAMP DNA. […]
Data reduction, standard calibration, and transformation of HTRF data were performed as previously described ([51]). Normalized IP1 values were calculated relative to the unstimulated mock-transfected cells (set to 0%) and fully stimulated MRGPRX4 (alone if applicable) (set to 100%).

T1 sequence (Q96LA9 whole entry): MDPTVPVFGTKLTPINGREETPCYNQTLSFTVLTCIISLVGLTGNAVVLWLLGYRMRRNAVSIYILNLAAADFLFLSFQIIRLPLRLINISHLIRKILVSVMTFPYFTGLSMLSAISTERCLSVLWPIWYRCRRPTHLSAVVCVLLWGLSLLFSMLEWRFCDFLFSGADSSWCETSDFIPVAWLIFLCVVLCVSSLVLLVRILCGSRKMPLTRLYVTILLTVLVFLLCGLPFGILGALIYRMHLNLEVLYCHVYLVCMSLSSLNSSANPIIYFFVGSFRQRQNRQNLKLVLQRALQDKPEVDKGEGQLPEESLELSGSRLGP

Q: What does the source list for `CC(C)[C@H]1CC[C@H](C(=O)N[C@H](Cc2ccccc2)C(=O)O)CC1` [Nateglinide]?
A: activation at 100 µM (log [nateglinide] (M) -4, MRGPRX4+RAMP10.5pg 1:0.5, Supplementary Figure 5d, read-out: IP1 accumulation (normalized)): 99.2%; activation at 20 µM (log [nateglinide] (M) -4.69897, MRGPRX4+RAMP10.5pg 1:0.5, Supplementary Figure 5d, read-out: IP1 accumulation (normalized)): 78.1%; activation at 20 µM (log [nateglinide] (M) -4.69897, MRGPRX4+RAMP1 0.75pg 1:0.75, Supplementary Figure 5d, read-out: IP1 accumulation (normalized)): 84.8%; activation at 20 µM (log [nateglinide] (M) -4.69897, MRGPRX4+RAMP1 1pg 1:1, Supplementary Figure 5d, 5g, read-out: IP1 accumulation (normalized)): 72.1%; activation at 4 µM (log [nateglinide] (M) -5.39794, MRGPRX4+RAMP10.5pg 1:0.5, Supplementary Figure 5d, read-out: IP1 accumulation (normalized)): 49.7%; activation at 4 µM (log [nateglinide] (M) -5.39794, MRGPRX4+RAMP1 0.75pg 1:0.75, Supplementary Figure 5d, read-out: IP1 accumulation (normalized)): 44.1%; activation at 4 µM (log [nateglinide] (M) -5.39794, MRGPRX4+RAMP1 1pg 1:1, Supplementary Figure 5d, 5g, read-out: IP1 accumulation (normalized)): 39.2%; activation at 0.8 µM (log [nateglinide] (M) -6.09691, MRGPRX4+RAMP10.5pg 1:0.5, Supplementary Figure 5d, read-out: IP1 accumulation (normalized)): 18.6%; activation at 0.8 µM (log [nateglinide] (M) -6.09691, MRGPRX4+RAMP1 0.75pg 1:0.75, Supplementary Figure 5d, read-out: IP1 accumulation (normalized)): 14.6%; activation at 0.8 µM (log [nateglinide] (M) -6.09691, MRGPRX4+RAMP1 1pg 1:1, Supplementary Figure 5d, 5g, read-out: IP1 accumulation (normalized)): 12.9%; activation at […] (log [nateglinide] (M) -6.79588, MRGPRX4+RAMP10.5pg 1:0.5, Supplementary Figure 5d, read-out: IP1 accumulation (normalized)): 8.57%; activation at […] (log [nateglinide] (M) -6.79588, MRGPRX4+RAMP1 0.75pg 1:0.75, Supplementary Figure 5d, read-out: IP1 accumulation (normalized)): 11.2%; activation at 0.032 µM (log [nateglinide] (M) -7.49485, MRGPRX4+RAMP10.5pg 1:0.5, Supplementary Figure 5d, read-out: IP1 accumulation (normalized)): 7.92%; activation at 0.032 µM (log [nateglinide] (M) -7.49485, MRGPRX4+RAMP1 0.75pg 1:0.75, Supplementary Figure 5d, read-out: IP1 accumulation (normalized)): 8.7%; activation at 0.032 µM (log [nateglinide] (M) -7.49485, MRGPRX4+RAMP1 1pg 1:1, Supplementary Figure 5d, 5g, read-out: IP1 accumulation (normalized)): 7.65%; activation at 100 µM (ratio MRGPRX4:RAMP1 1:0.25, log [Nateglinide] (M) -4, Fig S3a, read-out: IP1 accumulation): 102%; activation at 20 µM (ratio MRGPRX4:RAMP1 1:0.25, log [Nateglinide] (M) -4.69897, Fig S3a, read-out: IP1 accumulation): 76.7%; activation at 4 µM (ratio MRGPRX4:RAMP1 1:0.25, log [Nateglinide] (M) -5.39794, Fig S3a, read-out: IP1 accumulation): 42.2%; activation at 0.8 µM (ratio MRGPRX4:RAMP1 1:0.25, log [Nateglinide] (M) -6.09691, Fig S3a, read-out: IP1 accumulation): 29.4%; activation at […] (ratio MRGPRX4:RAMP1 1:0.25, log [Nateglinide] (M) -6.79588, Fig S3a, read-out: IP1 accumulation): 26.1%; activation at 0.032 µM (ratio MRGPRX4:RAMP1 1:0.25, log [Nateglinide] (M) -7.49485, Fig S3a, read-out: IP1 accumulation): 24%; activation at 100 µM (ratio MRGPRX4:RAMP1 1:1, log [Nateglinide] (M) -4, Fig S3a, read-out: IP1 accumulation): 114%; activation at 20 µM (ratio MRGPRX4:RAMP1 1:1, log [Nateglinide] (M) -4.69897, Fig S3a, read-out: IP1 accumulation): 87.9%; activation at 4 µM (ratio MRGPRX4:RAMP1 1:1, log [Nateglinide] (M) -5.39794, Fig S3a, read-out: IP1 accumulation): 43.7%; activation at 0.8 µM (ratio MRGPRX4:RAMP1 1:1, log [Nateglinide] (M) -6.09691, Fig S3a, read-out: IP1 accumulation): 22.8%; activation at […] (ratio MRGPRX4:RAMP1 1:1, log [Nateglinide] (M) -6.79588, Fig S3a, read-out: IP1 accumulation): 17.6%; activation at 0.032 µM (ratio MRGPRX4:RAMP1 1:1, log [Nateglinide] (M) -7.49485, Fig S3a, read-out: IP1 accumulation): 16%; activation at 100 µM (ratio MRGPRX4:RAMP1 1:2, log [Nateglinide] (M) -4, Fig S3a, read-out: IP1 accumulation): 117%; activation at 20 µM (ratio MRGPRX4:RAMP1 1:2, log [Nateglinide] (M) -4.69897, Fig S3a, read-out: IP1 accumulation): 93.3%; activation at 4 µM (ratio MRGPRX4:RAMP1 1:2, log [Nateglinide] (M) -5.39794, Fig S3a, read-out: IP1 accumulation): 44.8%; activation at 0.8 µM (ratio MRGPRX4:RAMP1 1:2, log [Nateglinide] (M) -6.09691, Fig S3a, read-out: IP1 accumulation): 18.6%; activation at […] (ratio MRGPRX4:RAMP1 1:2, log [Nateglinide] (M) -6.79588, Fig S3a, read-out: IP1 accumulation): 14.5%; activation at 0.032 µM (ratio MRGPRX4:RAMP1 1:2, log [Nateglinide] (M) -7.49485, Fig S3a, read-out: IP1 accumulation): 12.5%; activation at 100 µM (ratio MRGPRX4:RAMP 1:0.5, log [Nateglinide] (M) -4, Fig S3a, read-out: IP1 accumulation): 113%; activation at 20 µM (ratio MRGPRX4:RAMP 1:0.5, log [Nateglinide] (M) -4.69897, Fig S3a, read-out: IP1 accumulation): 93.7%; activation at 4 µM (ratio MRGPRX4:RAMP 1:0.5, log [Nateglinide] (M) -5.39794, Fig S3a, read-out: IP1 accumulation): 46.5%; activation at 0.8 µM (ratio MRGPRX4:RAMP 1:0.5, log [Nateglinide] (M) -6.09691, Fig S3a, read-out: IP1 accumulation): 24.4%; activation at […] (ratio MRGPRX4:RAMP 1:0.5, log [Nateglinide] (M) -6.79588, Fig S3a, read-out: IP1 accumulation): 18.5%; activation at 0.032 µM (ratio MRGPRX4:RAMP 1:0.5, log [Nateglinide] (M) -7.49485, Fig S3a, read-out: IP1 accumulation): 18.7%; Emax (DNA ratio MRGPRX4:RAMP1 1:0.25): 109%; Emax (DNA ratio MRGPRX4:RAMP1 1:0.5): 115%; Emax (DNA ratio MRGPRX4:RAMP1 1:0.75): 118%
